ChEMBL document CHEMBL5230157, “The natural anthraquinone dye purpurin exerts antibacterial activity by perturbing the FtsZ assembly” (Bioorg Med Chem, 2021)
Calls of active or inactive are those of the source. The rule behind the calls is not given here.

How the values were obtained:
Escherichia coli [1] = assay: Antibacterial activity against Escherichia coli XL1 assessed as bacterial growth inhibition at 150 uM by spectrophotometric method; assay type: functional; settings: read-out: GI
[2] = target: T1, Cell division protein FtsZ (Escherichia coli K-12, UniProt P0A9A6); assay: Binding affinity to Escherichia coli BL21 FtsZ assessed as dissociation constant of hydrophobic probe ANS-FtsZ complex fluorescence quenching incubated for 30 mins by double reciprocal plot analysis
T1 sequence (P0A9A6 whole entry): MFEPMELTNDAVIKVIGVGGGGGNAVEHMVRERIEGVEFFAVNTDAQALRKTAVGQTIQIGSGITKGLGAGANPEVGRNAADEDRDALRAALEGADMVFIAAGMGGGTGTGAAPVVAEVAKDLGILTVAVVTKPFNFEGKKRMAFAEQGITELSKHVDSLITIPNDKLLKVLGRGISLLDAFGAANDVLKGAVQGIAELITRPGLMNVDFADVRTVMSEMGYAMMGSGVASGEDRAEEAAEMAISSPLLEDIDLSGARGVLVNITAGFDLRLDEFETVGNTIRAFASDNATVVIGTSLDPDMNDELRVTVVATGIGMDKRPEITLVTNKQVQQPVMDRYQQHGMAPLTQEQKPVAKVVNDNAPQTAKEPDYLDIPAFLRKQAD

[3] = target: T2, Cell division protein FtsZ (Bacillus subtilis, UniProt A5Z1V5); assay: Binding affinity to Bacillus subtilis FtsZ assessed as dissociation constant of intrinsic tryptophan quenching incubated for 30 mins by double reciprocal plot analysis
T2 sequence (A5Z1V5 whole entry): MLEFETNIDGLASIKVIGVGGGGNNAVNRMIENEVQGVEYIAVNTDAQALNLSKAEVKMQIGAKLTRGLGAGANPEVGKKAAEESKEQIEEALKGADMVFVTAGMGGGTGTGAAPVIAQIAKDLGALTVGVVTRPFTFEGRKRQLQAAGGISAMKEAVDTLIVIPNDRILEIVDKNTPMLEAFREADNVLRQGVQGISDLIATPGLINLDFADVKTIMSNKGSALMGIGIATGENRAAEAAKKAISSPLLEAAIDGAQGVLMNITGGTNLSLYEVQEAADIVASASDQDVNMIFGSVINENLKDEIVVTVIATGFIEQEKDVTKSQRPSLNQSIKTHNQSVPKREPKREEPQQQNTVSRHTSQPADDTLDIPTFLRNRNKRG

[4] = target: T3, Cell division protein FtsZ (Bacillus subtilis) (UniProt A5Z1V5); assay: Inhibition of Bacillus subtilis 168 FtsZ assessed as decrease FtsZ ring at mid bacterial cells at 7 uM for 4 hrs by immunostaining based fluorescent microscopy
T3 sequence (whole entry): T2 sequence (A5Z1V5 whole entry)

[5] = target: T3, Cell division protein FtsZ (Bacillus subtilis); assay: Inhibition of Bacillus subtilis PL642 GFP-tagged FtsZ assessed as effect on nucleoid segregation at 7 uM for 4 hrs by immunostaining based fluorescent microscopy
[6] = target: T3, Cell division protein FtsZ (Bacillus subtilis); assay: Binding affinity to Bacillus subtilis FtsZ assessed as intrinsic tryptophan quenching incubated for 30 mins by fluorescence analysis
Escherichia coli [7] = assay: Antibacterial activity against Escherichia coli XL1 assessed as bacterial growth inhibition at 10 uM by spectrophotometric method; assay type: functional; settings: read-out: GI
[8] = target: T4, Cell division protein FtsZ (Escherichia coli K-12) (UniProt P0A9A6); assay: Inhibition of Escherichia coli BL21 FtsZ assessed as inhibition of KCl-induced GTPase activity at 5 uM preincubated for 10 mins followed by KCl stimulation and measured after 10 mins by malachite green ammonium molybdate dye based spectroscopic analysis; settings: time 20.0 min
T4 sequence (whole entry): T1 sequence (P0A9A6 whole entry)

Tubulin (Homo sapiens) [9] = target: T5, Tubulin (Homo sapiens) (UniProt P68371+Q9H4B7+P0DPH7+P68366+Q13509+Q71U36+P04350+Q3ZCM7+P07437+P68363+Q9BQE3+Q6PEY2+Q13885+Q9BVA1+Q9BUF5); assay: Inhibition of tubulin polymerization in human HeLa cells assessed as effect on interphase microtubule network at 80 to 150 uM for 24 hrs by […] staining based fluorescence microscopy; assay type: cell-based; settings: dose 80-150 µM
HeLa [10] = assay: Antiproliferative activity against human HeLa cells assessed as inhibition of cell proliferation at 10 uM incubated for 24 hrs by sulforhodamine B assay; assay type: functional; parameters: scale not given: the % may be the effect or the level left
[11] = target: T4, Cell division protein FtsZ (Escherichia coli K-12); assay: Binding affinity to Escherichia coli BL21 FtsZ assessed as hydrophobic probe ANS-FtsZ complex fluorescence quenching at 10 uM for 30 mins by fluorescence analysis
Bacillus subtilis [12] = assay: Antibacterial activity against Bacillus subtilis 168 assessed as increase in average cell length at 7 uM incubated for 4 hrs in 45% of bacterial cells by fluorescent microscopy; assay type: functional
Tubulin (Homo sapiens) [13] = target: T5, Tubulin (Homo sapiens); assay: Inhibition of tubulin polymerization […] assessed as effect on MAP rich- tubulin polymer mass at 20 to 80 uM preincubated for 10 mins followed by GTP addition and measured after 1 hrs by Bradford assay; settings: dose 20-80 µM, time 70.0 min
HeLa [14] = assay: Antiproliferative activity against human HeLa cells assessed as inhibition of cell proliferation at 50 uM incubated for 24 hrs by sulforhodamine B assay; assay type: functional; parameters: scale not given: the % may be the effect or the level left
[15] = target: T3, Cell division protein FtsZ (Bacillus subtilis); assay: Inhibition of Bacillus subtilis 168 FtsZ assessed as effect on nucleoid segregation at 7 uM for 4 hrs by immunostaining based fluorescent microscopy
Bacillus subtilis [16] = assay: Antibacterial activity against Bacillus subtilis 168 assessed as increase in average cell length at 7 uM incubated for 4 hrs in 23% of bacterial cells by fluorescent microscopy; assay type: functional
HeLa [17] = assay: Antiproliferative activity against human HeLa cells assessed as inhibition of cell proliferation at 200 uM incubated for 24 hrs by sulforhodamine B assay; assay type: functional; parameters: scale not given: the % may be the effect or the level left
[18] = target: T4, Cell division protein FtsZ (Escherichia coli K-12); assay: Binding affinity to Escherichia coli BL21 FtsZ assessed as hydrophobic probe ANS-FtsZ complex fluorescence quenching at 2 uM for 30 mins by fluorescence analysis
[19] = target: T4, Cell division protein FtsZ (Escherichia coli K-12); assay: Inhibition of KCl-induced Escherichia coli BL21 FtsZ polymerization at 40 uM incubate for 10 min followed by KCl stimulation by spectrofluorimeter based light-scattering assay
Bacillus subtilis [20] = assay: Antibacterial activity against Bacillus subtilis 168 assessed as increase in average cell length at 7 uM incubated for 4 hrs in 69% of bacterial cells by fluorescent microscopy; assay type: functional
[21] = target: T4, Cell division protein FtsZ (Escherichia coli K-12); assay: Inhibition of KCl-induced Escherichia coli BL21 FtsZ polymerization assessed as decrease in FtsZ polymer size at 80 uM incubate for 1 hrs by […] staining based fluorescence microscopy
Escherichia coli [22] = assay: Antibacterial activity against Escherichia coli XL1 assessed as fold increase in average cell length at 80 uM incubated for 4 hrs in by fluorescent microscopy; assay type: functional
[23] = target: T4, Cell division protein FtsZ (Escherichia coli K-12); assay: Binding affinity to Escherichia coli BL21 FtsZ assessed as hydrophobic probe ANS-FtsZ complex fluorescence quenching at 20 uM for 30 mins by fluorescence analysis
[24] = target: T4, Cell division protein FtsZ (Escherichia coli K-12); assay: Inhibition of Escherichia coli BL21 FtsZ assessed as inhibition of KCl-induced GTPase activity at 80 uM preincubated for 10 mins followed by KCl stimulation and measured after 10 mins by malachite green ammonium molybdate dye based spectroscopic analysis
Escherichia coli [25] = assay: Antibacterial activity against Escherichia coli XL1 assessed as bacterial growth inhibition at 30 uM by spectrophotometric method; assay type: functional; settings: read-out: GI
Bacillus subtilis [26] = assay: Antibacterial activity against Bacillus subtilis 168 assessed as increase in average cell length at 7 uM incubated for 4 hrs in 82% of bacterial cells by fluorescent microscopy; assay type: functional

With `O=C1c2ccccc2C(=O)c2c(O)c(O)cc(O)c21` [PURPURIN] the inhibition of growth at 150 µM (Escherichia coli [1]) was 47.8%, the Kd [2] was 11 µM and the Kd [3] was 5.2 µM. The Activity [4] was “Active”, the Activity [5] was “inactive” and the Activity [6] was “Dose-Dependent Effect”. The inhibition of growth at 10 µM (Escherichia coli [7]) was 12.5%, the inhibition [8] was 11.5% and the inhibition (Tubulin (Homo sapiens) [9]) was “inactive”. The Activity (HeLa [10]) was 6%, the Activity [11] was 35% and the Activity (Bacillus subtilis [12]) was 10.1 um. For the same molecule, the inhibition (Tubulin (Homo sapiens) [13]) was “inactive”, the Activity (HeLa [14]) was 28% and the Activity [15] was “inactive”. It also gave an Activity (Bacillus subtilis [16]) of 50.1 um, an Activity (HeLa [17]) of 72% and an Activity [18] of 14%. For the same molecule, the inhibition [19] was 31%, the Activity (Bacillus subtilis [20]) was 15.1 um and the inhibition [21] was “Active”. The “fold change (FC)” value (Escherichia coli [22]) was 4, the Activity [23] was 45% and the inhibition [24] was 21.9%. For the same molecule, the inhibition of growth at 30 µM (Escherichia coli [25]) was 25.6% and the Activity (Bacillus subtilis [26]) was 20.1 um.
